{"source": "ChEMBL document CHEMBL1201862", "about": "“PubChem BioAssay data set” (2004)", "key": {"Caspase-6": {"target": "T1, Caspase-6 (Homo sapiens, UniProt P55212)", "T1 sequence (P55212 whole entry)": "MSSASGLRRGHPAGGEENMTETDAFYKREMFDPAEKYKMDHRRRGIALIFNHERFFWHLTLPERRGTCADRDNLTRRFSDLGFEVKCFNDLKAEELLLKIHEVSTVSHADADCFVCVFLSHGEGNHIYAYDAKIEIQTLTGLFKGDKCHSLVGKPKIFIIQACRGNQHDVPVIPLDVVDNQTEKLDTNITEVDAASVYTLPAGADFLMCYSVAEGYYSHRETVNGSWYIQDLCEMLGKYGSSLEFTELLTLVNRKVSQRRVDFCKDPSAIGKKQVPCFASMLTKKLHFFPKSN", "assay": "inhibition of CASP6 peptide cleavage – biochemical, VEID-R110 fluorescence, cherry-pick, dose response (AID 720632)"}, "BJ [1]": {"test_system": "BJ", "assay": "cells", "format": "functional, cell-based", "details": "Homo sapiens"}, "BJ [2]": {"test_system": "BJ", "assay": "BJ-TERT-LT-ST fibroblast viability loss – cell-based, RAS-independent, luminescence, dose response (AID 1935);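 note: BJ fibroblasts immortalized with TERT plus LT and ST oncogenes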", "format": "functional", "details": "Homo sapiens"}, "BJ [3]": {"test_system": "BJ", "assay": "BJ-TERT fibroblast viability loss – cell-based, RAS-independent, luminescence, dose response (AID 1933)", "format": "functional", "details": "Homo sapiens"}, "[4]": {"assay": "fluconazole-exposed Candida albicans growth modulators – fluorescence, retest, confirmation (AID 2467)", "format": "functional, cell-based"}, "Coagulation factor XII": {"target": "T2, Coagulation factor XII (Homo sapiens, UniProt P00748)", "T2 sequence (P00748 whole entry)": "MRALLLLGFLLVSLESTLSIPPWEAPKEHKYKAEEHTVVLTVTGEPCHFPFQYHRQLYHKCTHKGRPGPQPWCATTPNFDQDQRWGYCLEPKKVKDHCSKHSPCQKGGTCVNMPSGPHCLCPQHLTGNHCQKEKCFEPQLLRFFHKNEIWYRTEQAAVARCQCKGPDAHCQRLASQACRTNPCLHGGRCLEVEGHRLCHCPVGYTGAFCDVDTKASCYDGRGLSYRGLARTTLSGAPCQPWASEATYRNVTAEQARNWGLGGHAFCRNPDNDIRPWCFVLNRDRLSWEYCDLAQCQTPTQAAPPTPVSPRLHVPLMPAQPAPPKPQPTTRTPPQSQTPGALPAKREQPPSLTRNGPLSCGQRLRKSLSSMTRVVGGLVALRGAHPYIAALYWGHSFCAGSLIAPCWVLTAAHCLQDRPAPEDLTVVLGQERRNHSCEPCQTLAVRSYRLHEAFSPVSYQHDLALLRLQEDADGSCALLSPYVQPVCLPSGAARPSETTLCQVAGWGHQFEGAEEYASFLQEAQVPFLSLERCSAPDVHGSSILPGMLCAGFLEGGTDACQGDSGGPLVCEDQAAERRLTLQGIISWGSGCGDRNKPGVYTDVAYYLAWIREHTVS", "format": "functional"}, "[5]": {"assay": "DRD fibroblast viability loss – cell-based, non-viral oncogenic, luminescence, dose response (AID 1934)", "format": "functional", "details": "Homo sapiens"}, "[6]": {"assay": "NIH-3T3 fibroblast cytotoxicity, dose response, cytotoxicity control, cell-based, fluorescence, Alamar Blue, secondary assay (AID 2327);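 note: NIH-3T3 mouse fibroblasts cultured with fluconazole at 8 µg/mL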", "format": "functional"}, "[7]": {"assay": "viability loss in THP-1 monocytes – THP-1 cells, cytotoxicity control for Vif-APOBEC3G degradation inhibitor project, dose response (AID 1117359)", "format": "functional", "details": "THP-1"}, "Protein Tat": {"target": "T3, Protein Tat (Human immunodeficiency virus type 1 group M subtype B (isolate HXB2)(HIV-1), UniProt P04608)", "T3 sequence (P04608 whole entry)": "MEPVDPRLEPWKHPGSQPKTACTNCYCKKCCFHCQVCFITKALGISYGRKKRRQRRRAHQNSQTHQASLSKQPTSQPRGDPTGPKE", "format": "functional"}, "[8]": {"target": "Heat shock protein HSP 90-alpha (Homo sapiens, UniProt P07900)", "format": "functional, organism-based"}, "H9c2": {"test_system": "H9c2", "assay": "cells", "format": "functional, cell-based", "details": "Rattus norvegicus, H9c2, Myocardium"}, "Aminopeptidase N": {"target": "T4, Aminopeptidase N (Plasmodium falciparum FcB1/Columbia, UniProt O96935)", "T4 sequence (O96935 whole entry)": "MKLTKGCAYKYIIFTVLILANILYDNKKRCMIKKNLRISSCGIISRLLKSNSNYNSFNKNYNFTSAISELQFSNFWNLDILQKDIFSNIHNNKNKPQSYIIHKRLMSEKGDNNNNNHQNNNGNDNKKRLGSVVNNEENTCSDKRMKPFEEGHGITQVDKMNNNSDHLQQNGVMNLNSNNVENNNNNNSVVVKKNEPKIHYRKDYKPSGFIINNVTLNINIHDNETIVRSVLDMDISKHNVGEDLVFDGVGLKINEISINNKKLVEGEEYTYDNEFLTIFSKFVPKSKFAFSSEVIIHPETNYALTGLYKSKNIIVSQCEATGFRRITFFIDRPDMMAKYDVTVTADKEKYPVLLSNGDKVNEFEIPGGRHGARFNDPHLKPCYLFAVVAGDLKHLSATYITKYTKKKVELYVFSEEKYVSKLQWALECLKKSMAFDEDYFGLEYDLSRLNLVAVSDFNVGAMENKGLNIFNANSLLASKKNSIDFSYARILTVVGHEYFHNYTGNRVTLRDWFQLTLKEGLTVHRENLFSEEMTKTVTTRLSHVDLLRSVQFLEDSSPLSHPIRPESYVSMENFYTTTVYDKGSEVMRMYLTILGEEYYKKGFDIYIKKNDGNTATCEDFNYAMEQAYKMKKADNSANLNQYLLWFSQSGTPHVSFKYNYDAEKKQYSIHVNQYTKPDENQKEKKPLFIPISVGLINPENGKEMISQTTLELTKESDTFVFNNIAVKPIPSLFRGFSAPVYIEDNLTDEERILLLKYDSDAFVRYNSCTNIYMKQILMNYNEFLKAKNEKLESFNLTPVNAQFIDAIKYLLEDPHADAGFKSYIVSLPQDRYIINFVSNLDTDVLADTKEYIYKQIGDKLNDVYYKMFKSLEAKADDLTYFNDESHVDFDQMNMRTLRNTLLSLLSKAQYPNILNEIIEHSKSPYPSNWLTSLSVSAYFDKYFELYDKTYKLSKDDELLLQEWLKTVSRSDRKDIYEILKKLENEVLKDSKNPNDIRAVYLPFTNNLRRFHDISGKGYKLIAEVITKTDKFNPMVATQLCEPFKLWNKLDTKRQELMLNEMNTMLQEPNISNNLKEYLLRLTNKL", "assay": "malaria alanyl aminopeptidase activity blockers – biochemical, fluorogenic H-Leu-NHMec substrate, 1536-well (AID 1445)", "parameters": "species or system Plasmodium falciparum 3D7, 3D7"}, "[9]": {"assay": "THP-1 cell cytotoxicity, dose response, cytotoxicity control for non-replicating M. tuberculosis project (AID 489025)", "format": "functional"}, "[10]": {"assay": "HepG2 cell cytotoxicity, dose response, cytotoxicity control for non-replicating M. tuberculosis project (AID 489018)", "format": "functional", "details": "Mycobacterium tuberculosis"}, "[11]": {"target": "Nuclear receptor subfamily 5 group A member 2 (Homo sapiens, UniProt O00482)", "sequence (O00482 whole entry)": "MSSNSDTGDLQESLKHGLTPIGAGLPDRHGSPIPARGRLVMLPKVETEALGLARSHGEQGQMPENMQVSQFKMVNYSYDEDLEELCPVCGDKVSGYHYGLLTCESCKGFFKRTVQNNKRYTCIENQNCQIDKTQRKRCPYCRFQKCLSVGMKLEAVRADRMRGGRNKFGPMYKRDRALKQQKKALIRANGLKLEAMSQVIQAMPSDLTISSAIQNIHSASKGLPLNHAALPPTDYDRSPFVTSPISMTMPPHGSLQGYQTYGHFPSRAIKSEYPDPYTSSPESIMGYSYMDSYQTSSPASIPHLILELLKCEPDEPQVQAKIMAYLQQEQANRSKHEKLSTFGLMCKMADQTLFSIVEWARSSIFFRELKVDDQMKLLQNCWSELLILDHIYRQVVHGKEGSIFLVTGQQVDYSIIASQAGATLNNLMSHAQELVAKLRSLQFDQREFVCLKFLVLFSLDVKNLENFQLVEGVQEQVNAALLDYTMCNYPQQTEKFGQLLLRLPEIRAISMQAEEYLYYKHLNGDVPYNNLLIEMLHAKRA", "format": "functional, cell-based"}, "[12]": {"assay": "nonselective StAR promoter luciferase inhibitors – cell-based, luminescence, luciferase reporter, counter-screen for LRH-1 inverse agonist project, dose response (AID 651969)", "format": "functional"}, "Steroidogenic factor 1": {"target": "Steroidogenic factor 1 (Homo sapiens, UniProt Q13285)", "sequence (Q13285 whole entry)": "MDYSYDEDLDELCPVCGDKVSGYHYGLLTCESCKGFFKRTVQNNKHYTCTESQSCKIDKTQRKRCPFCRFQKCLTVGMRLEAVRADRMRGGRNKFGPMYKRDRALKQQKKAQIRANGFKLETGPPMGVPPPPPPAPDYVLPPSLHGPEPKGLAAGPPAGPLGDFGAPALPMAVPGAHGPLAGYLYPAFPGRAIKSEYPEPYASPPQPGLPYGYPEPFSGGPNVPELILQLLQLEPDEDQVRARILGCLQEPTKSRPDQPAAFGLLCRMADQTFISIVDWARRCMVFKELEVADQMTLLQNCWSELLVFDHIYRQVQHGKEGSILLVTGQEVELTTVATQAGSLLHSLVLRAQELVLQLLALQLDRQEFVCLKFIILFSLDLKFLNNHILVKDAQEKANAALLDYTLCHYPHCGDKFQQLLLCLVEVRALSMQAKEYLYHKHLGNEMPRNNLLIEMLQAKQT", "assay": "Counterscreen for inverse agonists of the liver receptor homolog-1 (LRH-1; NR5A2): Luminescence-based cell-based high throughput dose response assay to identify inverse agonists of the Steroidogenic Factor 1 Nuclear Receptor (SF1; NR5A1).", "format": "functional"}, "[13]": {"target": "T5, Corticotropin-releasing factor receptor 2/Corticotropin-releasing factor-binding protein (Homo sapiens, UniProt P24387+Q13324)", "T5 sequence (Q13324 whole entry)": "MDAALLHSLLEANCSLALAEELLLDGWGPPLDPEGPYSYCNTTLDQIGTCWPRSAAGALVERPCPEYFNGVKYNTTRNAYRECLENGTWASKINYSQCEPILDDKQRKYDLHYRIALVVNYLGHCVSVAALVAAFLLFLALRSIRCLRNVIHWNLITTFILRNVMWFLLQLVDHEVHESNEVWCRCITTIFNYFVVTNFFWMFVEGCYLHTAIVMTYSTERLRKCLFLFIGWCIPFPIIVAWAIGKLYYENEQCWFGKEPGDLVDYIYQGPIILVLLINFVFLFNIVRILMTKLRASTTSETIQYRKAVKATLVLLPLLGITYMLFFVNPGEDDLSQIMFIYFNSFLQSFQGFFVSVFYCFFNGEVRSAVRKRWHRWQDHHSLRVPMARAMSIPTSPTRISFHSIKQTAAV", "T5 sequence (P24387 whole entry)": "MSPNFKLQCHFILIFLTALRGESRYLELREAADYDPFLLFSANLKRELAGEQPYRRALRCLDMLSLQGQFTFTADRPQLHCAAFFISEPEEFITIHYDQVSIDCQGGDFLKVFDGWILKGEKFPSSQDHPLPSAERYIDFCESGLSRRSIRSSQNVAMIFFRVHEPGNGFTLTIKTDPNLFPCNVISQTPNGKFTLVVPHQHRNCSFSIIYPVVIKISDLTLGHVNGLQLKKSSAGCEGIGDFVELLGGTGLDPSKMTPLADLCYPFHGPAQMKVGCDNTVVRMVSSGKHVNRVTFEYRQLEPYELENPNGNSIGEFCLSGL", "assay": "activators of CRF receptor 2 with binding protein – uHTS hits, confirmation (AID 602473)", "format": "functional", "details": "read-out: EC50_Mean"}, "Vero": {"test_system": "Vero", "assay": "cells", "format": "functional", "details": "Chlorocebus sabaeus"}}, "note": "Calls of active or inactive are those of the source.", "data": [{"molecule": "CC(NC(=O)CN1c2cccc3cccc(c23)S1(=O)=O)c1ccc(S(N)(=O)=O)cc1", "note": "(stereo unspecified)", "values": [{"measurement": "AC50", "setting": "Caspase-6", "result": "22.4 µM (active)"}]}, {"molecule": "CCOc1ccc(-c2c(C)[n+](-c3ccc(OCC)cc3)c3n2CCCCC3)cc1.[O-][Cl+3]([O-])([O-])[O-]", "values": [{"measurement": "EC50", "setting": "BJ [1]", "result": "8.54 µM (active)"}, {"measurement": "EC50", "setting": "BJ [2]", "result": "17.1 µM (active)"}, {"measurement": "EC50", "setting": "BJ [3]", "result": "9.44 µM (inconclusive)"}, {"measurement": "EC50", "setting": "[4]", "result": "2.36 µM (active)"}, {"measurement": "IC50", "setting": "Coagulation factor XII", "result": "> 50 µM (inactive)"}, {"measurement": "EC50", "setting": "[5]", "result": "13.5 µM (inconclusive)"}, {"measurement": "EC50", "setting": "[6]", "result": "39.3 µM (active)"}]}, {"molecule": "CCC(c1nnnn1Cc1ccco1)N(Cc1ccccc1OC)Cc1cc2cc(C)ccc2nc1O", "note": "(stereo unspecified)", "values": [{"measurement": "CC50", "setting": "[7]", "result": "> 40 µM (active)"}, {"measurement": "IC50", "setting": "Protein Tat", "result": "> 100 µM (inconclusive)"}]}, {"molecule": "O=C(Nc1nc(-c2ccccn2)cs1)c1ccc(-c2ccccc2F)o1", "values": [{"measurement": "AC50", "setting": "[8]", "result": "6.54 µM (active)"}, {"measurement": "IC50", "setting": "H9c2", "result": "> 79 µM (inactive)"}]}, {"molecule": "Nc1nnc(SCC(=O)Nc2ccccc2-c2ccccc2)[nH]1", "values": [{"measurement": "IC50", "setting": "Aminopeptidase N", "result": "51.2 µM (active)"}]}, {"molecule": "COc1ccc2cc(C(=O)NCc3ccccc3CN3CCCC3)ccc2c1", "values": [{"measurement": "CC50", "setting": "[9]", "result": "> 40 µM (active)"}, {"measurement": "CC50", "setting": "[10]", "result": "> 20 µM (active)"}]}, {"molecule": "O=C(NCc1ccco1)c1nn(-c2ccccc2)c(=O)c2ccccc12", "values": [{"measurement": "IC50", "setting": "[11]", "result": "35.9 µM (inactive)"}, {"measurement": "IC50", "setting": "[12]", "result": "12 µM (inactive)"}, {"measurement": "IC50", "setting": "Steroidogenic factor 1", "result": "3.09 µM (active)"}]}, {"molecule": "COCCOC(=O)/C(=C/c1ccc(OC(=O)c2ccccc2)cc1)C(C)=O", "values": [{"measurement": "AC50", "setting": "[8]", "result": "3.02 µM (active)"}, {"measurement": "EC50", "setting": "[13]", "result": "> 53 µM (inactive)"}]}, {"molecule": "Cc1cc(C)c2c(O)nc(SCC(=O)Nc3ccc(Br)cc3)nc2n1", "values": [{"measurement": "IC50", "setting": "[11]", "result": "28.2 µM (inactive)"}, {"measurement": "IC50", "setting": "[12]", "result": "35.9 µM (inactive)"}, {"measurement": "IC50", "setting": "Steroidogenic factor 1", "result": "33.4 µM (inactive)"}]}, {"molecule": "CCOC(=O)CC1C(=O)NCCN1c1nc2ccc(C)cn2c(=O)c1/C=C1\\SC(=S)N(CC(C)C)C1=O", "note": "(stereo unspecified)", "values": [{"measurement": "IC50", "setting": "Aminopeptidase N", "result": "35.7 µM (active)"}]}, {"molecule": "CN(C)C=O.NS(=O)(=O)c1cccc(NC(=O)CSc2nc(O)c3c(C(F)(F)F)cc(-c4cccs4)nc3n2)c1", "values": [{"measurement": "IC50", "setting": "Aminopeptidase N", "result": "30.5 µM (active)"}]}, {"molecule": "CCN(CC(=O)NC(C)(C)C)C(=O)CCl", "values": [{"measurement": "CC50", "setting": "Vero", "result": "22.2 µM (active)"}]}]}
